Laboratory results from patent US20260225970A1, “SOIL C[…] USE THEREOF” (priority 2020, published 2026).
Where two headings read alike, the source gives them in different places.

System: Nitrosomonas europaea IF014298
Test: Bioluminescence nitrification inhibition assay using a nitrifying bacterium in vitro (luxAB-introduced Nitrosomonas europaea)
Assay type: cell-based
Conditions: for IC80: IF014298, 0.5 h, read-out: Nitrification inhibitory activity ED80; for nitrification inhibitory activity: result in words, conclusion from the bioluminescence assay (Table 2)
Description: The nitrification inhibitory action of 2,7-dimethoxy-1,4-naphthoquinone was analyzed using a nitrifying bacterium in vitro (T. Iizumi, M. Mizumoto, K. Nakamura, A Bioluminescence assay using Nitrosomonas europaea for rapid and sensitive detection of nitrification inhibitors (1998) Appl. Environment. Microbiol., 64, 3656-3662).
A nitrifying bacterium (Nitrosomonas europaea IF014298) into which a luciferase gene derived from a bacterium (luxAB) had been introduced was aerobically cultured at 30° C. for 7 to 9 days in a P culture medium containing kanamycin (25 mg/l L). The obtained nitrifying bacterium was washed and then suspended in a fresh P culture medium to prepare a nitrifying bacterial suspension. This nitrifying bacterial suspension was allowed to stand in a dark place for 30 minutes or more before the experiment.
Here, the composition of the P culture medium consisted of 2.5 g of (NH4)2SO4, 0.7 g of KH2PO4, 13.5 g of Na2HPO4, 0.5 g of NaHCO3, 100 mg of MgSO4/7H2O, 5 mg of CaCl2/2H2O, 1 mg of Fe-EDTA, and 1 L of water, and the pH thereof was 8.0.
After mixing in vitro an aqueous solution of the above-described nitrifying bacterial suspension, consisting of 0.25 mL of the above-described nitrifying bacterial suspension and 0.2 mL of water, with 0.01 mL of a sample solution of 2,7-dimethoxy-1,4-naphthoquinone at various concentrations, the amount of bioluminescence associated with the nitrification reaction during culturing at 15° C. for 30 minutes was measured using a luminometer (manufactured by Turner Designs, Inc., model name: TD20/20), whereby the nitrification action was evaluated.
The amount of bioluminescence associated with the nitrification reaction decreases in a case where a substance having a nitrification inhibitory action is present in the sample solution. Therefore, the amount of luminescence in a case where each of the sample solutions of 2,7-dimethoxy-1,4-naphthoquinone at various concentrations was added to the aqueous solution of the nitrifying bacterial suspension was divided by the amount of luminescence in the case of only using the aqueous solution of the bacterial cell suspension without the sample solution being added, thereby obtaining a value as the nitrification inhibition rate. The results of measuring the nitrification inhibitory activity of the present compound at various concentrations are shown in FIG. 5.
In addition, the nitrification inhibitory activity of the 1,4-naphthoquinone derivative was measured in the same manner. In Table 2, R^1 to R^6 are each R^1 to R^6 in Formula (1), respectively.

[1] = bioluminescence during culturing at 15° C. for 30 minutes, luxAB Nitrosomonas europaea suspension in P culture medium

SMILES | IC80 [1] [µM] | nitrification inhibitory activity | IC80 (Nitrosomonas europaea) [µM] | ED50 (nitrification inhibition, dose response curve of FIG. 5, second value printed as ED50 in the same sentence, 15° C., 30 minutes) [µM] | nitrification inhibitory activity (listed as 2,7-dimethoxy-1,4-naphthoquinone) | nitrification inhibitory activity (listed as zeanone)
O=C1C(Cl)=C(Cl)C(=O)c2ccccc21 [2,3-Dichloro-1,4-naphthoquinone] | 2.2 | have a nitrification inhibitory activity |  |  |  | 
NC1=C(Cl)C(=O)c2ccccc2C1=O [2-Amino-3-chloro-1,4-naphthoquinone] | 13.3 | have a nitrification inhibitory activity |  |  |  | 
O=C1C=CC(=O)c2c(O)ccc(O)c21 [5,8-Dihydroxy-1,4-naphthoquinone] |  | have a nitrification inhibitory activity | 2.2 |  |  | 
O=C1C=CC(=O)c2ccccc21 [1,4-Naphthoquinone] | 4.4 | have a nitrification inhibitory activity |  |  |  | 
O=C1C(Cl)=C(Cl)C(=O)c2c(O)ccc(O)c21 [2,3-Dichloro-5,8-dihydroxy-1,4-naphthoquinone] | 0.9 | have a nitrification inhibitory activity |  |  |  | 
Cc1ccc2c(c1)C(=O)C=CC2=O [6-Methyl-1,4-naphthoquinone] | 2.2 | have a nitrification inhibitory activity |  |  |  | 
COC1=CC(=O)c2ccc(OC)cc2C1=O [Zeanone, 2,7-dimethoxy-1,4-naphthoquinone] | 16.1 |  |  | 16.1 | have a nitrification inhibitory activity | excellent nitrification inhibitory action
CC1=CC(=O)c2ccccc2C1=O [2-Methyl-1,4-naphthoquinone] | 4.4 | have a nitrification inhibitory activity |  |  |  | 
CC1=CC(=O)c2c(O)cccc2C1=O [5-Hydroxy-2-methyl-1,4-naphthoquinone] | 0.5 | have a nitrification inhibitory activity |  |  |  | 
O=C1C=C(Cl)C(=O)c2ccccc21 [2-Chloro-1,4-naphthoquinone] | 4 | have a nitrification inhibitory activity |  |  |  | 
O=C1C=C(O)C(=O)c2ccccc21 [2-Hydroxy-1,4-naphthoquinone] | > 100 | does not have a nitrification inhibitory activity |  |  |  | 
O=C1C=CC(=O)c2c(O)cccc21 [5-Hydroxy-1,4-naphthoquinone] | 1.1 | have a nitrification inhibitory activity |  |  |  | 
COC1=CC(=O)c2ccccc2C1=O [2-Methoxy-1,4-naphthoquinone] | 8.9 | have a nitrification inhibitory activity |  |  |  | 
